Tests used:
serotonin-1B receptor = target: T1, serotonin-1B receptor (Rattus norvegicus, UniProt P28564); assay: Assay for affinity for serotonin-1B receptor (125I cyanopindolol binding, rat cerebral cortex membranes); conditions: 10 μM compound, mean of two experiments
T1 construct: cell membranes of the cerebral cortex excised from male Winstar rats; from tissue; host or cells: rat cerebral cortex membranes (male Wistar rats)
Method: Compounds of the present invention were examined for affinity for the serotonin-1B receptor which can exert a relaxation effect on the stomach and relieve impaired gastric accommodation of functional dyspepsia patients in response to an agonist.
In a Tris-HCl buffer (50 mM Tris-HCl, pH 7.4, 120 mM NaCl, 5 mM KCl, 2 mM CaCl2, 1 mM MgCl2), 4 mg of cell membranes of the cerebral cortex excised from male Winstar rats, each weighing 175±25 g, was incubated at 37° C. for 1.5 hrs with […] of ^125[I] cyanopindolol (PerkinElmer, 100 μCi) and 10 μM of the compound of interest of the present invention per well. After completion of the incubation, the incubation mixture was filtered through Whatman GF/B filter (unifilter-96, Lot: 6005177, PerkinElmer) to separate ligand-bound receptors. These bound receptors were washed three times with 5 mL of a Tris-HCl buffer. Then, 10 mL of a scintillation cocktail (Lot: 03999, Fluka) was added, and reacted for 16 hrs or to measure a radiation activity using a beta-counter (Packcard) in order to calculate the quantity of ^125[I] cyanopindolol bound to the receptor.
Meanwhile, 10 μM of serotonin (H9523, Sigma) was incubated in the presence of […] of ^125[I] cyanopindolol to determine a nonspecific binding value. The experiment was independently carried out twice, and receptor affinity was calculated using the following Equation 3. […]

[1] = target: T2, human dopamine D2 receptor (Homo sapiens, UniProt P14416); assay: Assay for affinity for dopamine receptor (3H-spiperone competitive binding); conditions: 10 μM compound; 0.16 nM tritium spiperone; CHO cells transfected with human dopamine D2; mean of two experiments
T2 construct: expressed in transfected cells; host or cells: CHO (Chinese hamster ovary) cells
Method: Affinity of the compounds of the present invention for the dopamine-D2 receptor, which is found in the wall of the gastric tract of mammals and inhibits gastric motility, was determined by measuring competitive inhibition against the binding to the receptor of a radio-labeled ligand which is known for its affinity for the receptor. In this regard, the experiment was performed according to the method described in [Heys G et al. Mol. Endocrinol. 6:920, 1992] and [Grandy D K et al. Proc Natl Acad Sci USA. 86:9762, 1989].
In tris-HCl buffer ([…], pH 7.4, 120 mM NaCl, 5 mM KCl, 2 mM CaCl2, 1 mM MgCl2) 150 μg of Chinese hamster ovary (CHO) cells transfected with a human dopamine D2, gene were incubated at 25° C. for 120 min with 0.16 nM of tritium Spiperone (^3[H] Spiperon [NEN, 250 μCi]) and 10 μM of the compound of interest. After completion of the incubation, the incubation mixture was filtered through Whatman GF/B filter (unifilter-96 Lot: 6005177, PerkinElmer) to separate ligand-bound receptors. […] Then, 10 mL of a scintillation cocktail (Lot: 03999, Fluka) was added and reacted for 16 hrs or longer to measure radiation activity using a beta-counter (Packcard) in order to calculate the quantity of tritium spiperone bound to the receptor. […] The experiment was independently carried out twice, and receptor affinity was calculated using the following Equation 1. […]

human 5-HT1A receptor = target: T3, human 5-HT1A receptor (Homo sapiens, UniProt P08908); assay: Assay for affinity for serotonin-1A receptor (3H 8-OH-DPAT competitive binding); conditions: 10 μM compound; 1.5 nM 3[H] 8-OH-DPAT; CHO cells transfected with human 5-HT1A receptor; mean of two experiments
T3 construct: expressed in transfected cells; host or cells: CHO (Chinese hamster ovary) cells
T3 sequence (P08908 1-422): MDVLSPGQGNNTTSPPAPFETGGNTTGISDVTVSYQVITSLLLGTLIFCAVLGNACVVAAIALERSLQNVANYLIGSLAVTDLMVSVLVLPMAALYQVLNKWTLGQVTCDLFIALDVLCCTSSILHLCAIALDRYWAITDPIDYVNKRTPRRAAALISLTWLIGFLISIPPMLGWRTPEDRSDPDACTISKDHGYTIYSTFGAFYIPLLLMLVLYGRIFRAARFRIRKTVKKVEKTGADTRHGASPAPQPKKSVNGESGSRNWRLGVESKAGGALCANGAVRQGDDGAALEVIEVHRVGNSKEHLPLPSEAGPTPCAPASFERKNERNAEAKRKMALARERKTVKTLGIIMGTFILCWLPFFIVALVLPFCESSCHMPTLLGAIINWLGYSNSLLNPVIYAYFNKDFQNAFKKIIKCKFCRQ
Method: Compounds of the present invention were examined for affinity for the serotonin-1A receptor which can increase gastric accommodation in response to an agonist.
In tris-HCl buffer (50 mM Tris-HCl, pH 7.4, 120 mM NaCl, 5 mM KCl, 2 mM CaCl2, 1 mM MgCl2), 150 μg of Chinese hamster ovary (CHO) cells transfected with a human […] 5-HT1A receptor were incubated at 37° C. for 1.5 hrs with 1.5 nM of ^3[H] 8-OH-DPAT and 10 μM of the compound of interest of Example. After completion of the incubation, the incubation mixture was filtered through Whatman GF/B filter (unifilter-96, Lot: 6005177, PerkinElmer) to separate ligand-bound receptors. These bound receptors were washed three times with 5 mL of a Tris-HCl buffer. Then, 10 mL of a scintillation cocktail (Lot: 03999, Fluka) was added, and reacted for 16 hrs or longer with to measure radiation activity using a beta-counter (Packcard) in order to calculate the quantity of ^3[H] 8-OH-DPAT bound to the receptor.
Meanwhile, 10 μM of metergoline was also incubated in the presence of 1.5 nM of ^3[H] 8-OH-DPAT to determine a nonspecific binding value. The experiment was independently carried out twice, and receptor affinity was calculated using the following Equation 2. […]

normal rat = assay: Gastric emptying effect on normal rat; type: in vivo, Sprague-Dawley rats
Method: Gastric emptying activity of the compounds of the present invention was examined in the following experiment.
Sprague-Dawley rats with an age of 6 weeks were divided into groups according to weight, and acclimated for one week at a temperature of 22˜24° C. and a humidity of 60-80% while a standard diet and water were provided. Thereafter, they were starved for 24 hrs before an experiment while water was provided. From 3 hrs before the experiment, no more water was provided. A 3% hydroxy propyl methyl cellulose solution containing the compound of Example in an amount of 10 μg/kg was orally administered at a dose of 1 mL to each rat.
After 45 min, a semi-solid test meal (0.05% phenol red solution containing 1.5% MC), prepared by mashing feeds in water, was orally administered in an amount of 2 mL to each rat. After 35 min, the SD rats were killed, and the stomach was excised, and weighed carefully lest the gut content was leaked. Subsequently, the stomach was washed with distilled water to remove the gut content, dried, and weighed again, in order to calculate the weight of the semi-solid test meal left in the gut. In Table 4, the control was orally administered with 1 mL of 3% […].
Gastric Emptying(%)=[1−(weight of semi-solid test meal left in gut/weight of semi-solid test meal at 0-time)]×100 [Equation 4] […]

T2 sequence (P14416 whole entry): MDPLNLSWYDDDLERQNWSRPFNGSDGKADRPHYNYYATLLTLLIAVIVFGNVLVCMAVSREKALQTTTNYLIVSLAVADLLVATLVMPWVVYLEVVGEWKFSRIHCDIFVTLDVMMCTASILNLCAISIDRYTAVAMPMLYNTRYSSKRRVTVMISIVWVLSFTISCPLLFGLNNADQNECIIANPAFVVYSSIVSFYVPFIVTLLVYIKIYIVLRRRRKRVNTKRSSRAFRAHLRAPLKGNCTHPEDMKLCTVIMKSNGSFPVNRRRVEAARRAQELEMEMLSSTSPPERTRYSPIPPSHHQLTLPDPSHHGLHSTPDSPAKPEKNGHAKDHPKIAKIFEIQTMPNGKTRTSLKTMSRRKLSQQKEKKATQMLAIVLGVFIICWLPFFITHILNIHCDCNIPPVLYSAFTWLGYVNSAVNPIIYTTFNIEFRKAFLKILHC
T1 sequence (P28564 whole entry): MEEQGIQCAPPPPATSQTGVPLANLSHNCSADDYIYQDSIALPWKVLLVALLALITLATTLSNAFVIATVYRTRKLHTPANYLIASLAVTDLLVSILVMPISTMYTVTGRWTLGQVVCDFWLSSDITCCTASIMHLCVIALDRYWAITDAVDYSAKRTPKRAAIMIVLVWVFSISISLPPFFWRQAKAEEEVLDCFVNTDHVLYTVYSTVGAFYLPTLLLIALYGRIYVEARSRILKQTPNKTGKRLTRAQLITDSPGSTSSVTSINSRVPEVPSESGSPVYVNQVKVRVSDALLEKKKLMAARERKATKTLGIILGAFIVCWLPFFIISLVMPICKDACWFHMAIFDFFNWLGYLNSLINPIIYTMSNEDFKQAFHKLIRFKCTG

- Affinity (%) (serotonin-1B receptor): 92%
- Affinity (%) [1]: 46%
- Affinity (%) (human 5-HT1A receptor): 41%
SMILES: CCOC(=O)CCC(=O)N1CCc2cc(OC)c(OC)c3c2[C@@H]1Cc1cc(OC)c(OC)cc1-3 [Example 1, (S)-4-oxo-4-(1,2,9,10-tetramethoxy-4,5,6a,7-tetrahydro-dibenzo[de,g]quinoline-6-yl)-butyric acid ethyl ester]
- Gastric Emptying (%) (normal rat; dose 10 μg/kg oral, 45 min before semi-solid test meal, stomach excised 35 min after meal, control 24.3): 47.8%
- increase of gastric emptying compared to the control (normal rat; normal rats, oral dose 10 μg/kg): roughly two-fold

— patent publication US20140155609A9, “QUINOLINE DERIVATIVE COMPOUND, METHOD FOR PREPARING SAME, AND PHARMACEUTICAL COMPOSITION CONTAINING SAME” (Dong-A ST Co., Ltd., priority 2010, published 2014)
